Test results reported in ChEMBL document CHEMBL3045554, “Synthesis and antimicrobial screening of N-(1-methyl-1H-pyrazole-4-carbonyl)-thiourea derivatives” (2012).
In brackets after ≈: the same amount, converted by molar mass. One block for each molecule: values may come before it. Activity calls are given as the source filed them. The rule behind the calls is not given here.

What was measured:
[1] = test system: Acinetobacter baumannii; assay: Antimicrobial activity against Acinetobacter baumannii 15896 by microdilution method; type: functional
[2] = test system: Klebsiella pneumoniae; assay: Antimicrobial activity against Klebsiella pneumoniae 126/2007 by microdilution method; type: functional
[3] = test system: Bacillus subtilis; assay: Antimicrobial activity against Bacillus subtilis 10.10.2006 by microdilution method; type: functional
[4] = test system: Pseudomonas aeruginosa; assay: Antimicrobial activity against Pseudomonas aeruginosa 5541 by microdilution method; type: functional
[5] = test system: Staphylococcus aureus; assay: Antimicrobial activity against Staphylococcus aureus by microdilution method; type: functional
[6] = test system: Escherichia coli; assay: Antimicrobial activity against Escherichia coli 637/2007 by microdilution method; type: functional
[7] = test system: Enterococcus faecalis; assay: Antimicrobial activity against Enterococcus faecalis 13773 by microdilution method; type: functional
[8] = test system: Pseudomonas aeruginosa; assay: Effect on DNase production in Pseudomonas aeruginosa 5541 after 24 hr; type: functional, organism-based
[9] = test system: Bacillus subtilis; assay: Effect on DNase production in Bacillus subtilis 10.10.2006 after 24 hr; type: functional, organism-based
[10] = test system: Escherichia coli; assay: Effect on esculethol production in Escherichia coli 637/2007 after 24 hr by esculin hydrolysis test; type: functional, organism-based
[11] = test system: Bacillus subtilis; assay: Inhibition of caseinase production in Bacillus subtilis 10.10.2006 after 24 hr by casein hydrolysis assay; type: functional, organism-based
[12] = test system: Klebsiella pneumoniae; assay: Effect on esculethol production in Klebsiella pneumoniae 126/2007 after 24 hr by esculin hydrolysis test; type: functional, organism-based
[13] = test system: Pseudomonas aeruginosa; assay: Effect on amylase production in Pseudomonas aeruginosa 5541 after 24 hr by starch hydrolysis assay; type: functional, organism-based
[14] = test system: Enterococcus faecalis; assay: Effect on amylase production in Enterococcus faecalis 13773 after 24 hr by starch hydrolysis assay; type: functional, organism-based
[15] = test system: Klebsiella pneumoniae; assay: Effect on amylase production in Klebsiella pneumoniae 126/2007 after 24 hr by starch hydrolysis assay; type: functional, organism-based
[16] = test system: Escherichia coli; assay: Effect on gelatinase production in Escherichia coli 637/2007 after 24 hr by gelatin hydrolysis test; type: functional, organism-based
[17] = test system: Klebsiella pneumoniae; assay: Inhibition of lecithinase production in Klebsiella pneumoniae 126/2007 after 7 days; type: functional, organism-based
[18] = test system: Pseudomonas aeruginosa; assay: Effect on gelatinase production in Pseudomonas aeruginosa 5541 after 24 hr by gelatin hydrolysis test; type: functional, organism-based
[19] = test system: Pseudomonas aeruginosa; assay: Effect on esculethol production in Pseudomonas aeruginosa 5541 after 24 hr by esculin hydrolysis test; type: functional, organism-based
[20] = test system: Pseudomonas aeruginosa; assay: Inhibition of lecithinase production in Pseudomonas aeruginosa 5541 after 7 days; type: functional, organism-based
[21] = test system: Bacillus subtilis; assay: Inhibition of lecithinase production in Bacillus subtilis 10.10.2006 after 7 days; type: functional, organism-based
[22] = test system: Acinetobacter baumannii; assay: Inhibition of lecithinase production in Acinetobacter baumannii 15896 after 7 days; type: functional, organism-based
[23] = test system: Staphylococcus aureus; assay: Effect on lipase production in Staphylococcus aureus after 7 days; type: functional, organism-based
[24] = test system: Staphylococcus aureus; assay: Effect on gelatinase production in Staphylococcus aureus after 24 hr by gelatin hydrolysis test; type: functional, organism-based
[25] = test system: Acinetobacter baumannii; assay: Effect on amylase production in Acinetobacter baumannii 15896 after 24 hr by starch hydrolysis assay; type: functional, organism-based
[26] = test system: Pseudomonas aeruginosa; assay: Effect on lipase production in Pseudomonas aeruginosa 5541 after 7 days; type: functional, organism-based
[27] = test system: Acinetobacter baumannii; assay: Inhibition of caseinase production in Acinetobacter baumannii 15896 after 24 hr by casein hydrolysis assay; type: functional, organism-based
[28] = test system: Bacillus subtilis; assay: Effect on esculethol production in Bacillus subtilis 10.10.2006 after 24 hr by esculin hydrolysis test; type: functional, organism-based
[29] = test system: Staphylococcus aureus; assay: Inhibition of lecithinase production in Staphylococcus aureus after 7 days; type: functional, organism-based
[30] = test system: Klebsiella pneumoniae; assay: Effect on lipase production in Klebsiella pneumoniae 126/2007 after 7 days; type: functional, organism-based
[31] = test system: Enterococcus faecalis; assay: Inhibition of caseinase production in Enterococcus faecalis 13773 after 24 hr by casein hydrolysis assay; type: functional, organism-based
[32] = test system: Pseudomonas aeruginosa; assay: Inhibition of caseinase production in Pseudomonas aeruginosa 5541 after 24 hr by casein hydrolysis assay; type: functional, organism-based
[33] = test system: Staphylococcus aureus; assay: Inhibition of caseinase production in Staphylococcus aureus after 24 hr by casein hydrolysis assay; type: functional, organism-based
[34] = test system: Escherichia coli; assay: Inhibition of caseinase production in Escherichia coli 637/2007 after 24 hr by casein hydrolysis assay; type: functional, organism-based
[35] = test system: Escherichia coli; assay: Effect on amylase production in Escherichia coli 637/2007 after 24 hr by starch hydrolysis assay; type: functional, organism-based
[36] = test system: Bacillus subtilis; assay: Effect on amylase production in Bacillus subtilis 10.10.2006 after 24 hr by starch hydrolysis assay; type: functional, organism-based
[37] = test system: Bacillus subtilis; assay: Effect on lipase production in Bacillus subtilis 10.10.2006 after 7 days; type: functional, organism-based
[38] = test system: Acinetobacter baumannii; assay: Effect on lipase production in Acinetobacter baumannii 15896 after 7 days; type: functional, organism-based
[39] = test system: Escherichia coli; assay: Inhibition of lecithinase production in Escherichia coli 637/2007 after 7 days; type: functional, organism-based
[40] = test system: Klebsiella pneumoniae; assay: Inhibition of caseinase production in Klebsiella pneumoniae 126/2007 after 24 hr by casein hydrolysis assay; type: functional, organism-based
[41] = test system: Acinetobacter baumannii; assay: Effect on esculethol production in Acinetobacter baumannii 15896 after 24 hr by esculin hydrolysis test; type: functional, organism-based
[42] = test system: Enterococcus faecalis; assay: Effect on esculethol production in Enterococcus faecalis 13773 after 24 hr by esculin hydrolysis test; type: functional, organism-based
[43] = test system: Enterococcus faecalis; assay: Effect on lipase production in Enterococcus faecalis 13773 after 7 days; type: functional, organism-based
[44] = test system: Acinetobacter baumannii; assay: Effect on gelatinase production in Acinetobacter baumannii 15896 after 24 hr by gelatin hydrolysis test; type: functional, organism-based
[45] = test system: Enterococcus faecalis; assay: Inhibition of lecithinase production in Enterococcus faecalis 13773 after 7 days; type: functional, organism-based
[46] = test system: Acinetobacter baumannii; assay: Effect on DNase production in Acinetobacter baumannii 15896 after 24 hr; type: functional, organism-based
[47] = test system: Klebsiella pneumoniae; assay: Effect on DNase production in Klebsiella pneumoniae 126/2007 after 24 hr; type: functional, organism-based
[48] = test system: Escherichia coli; assay: Effect on DNase production in Escherichia coli 637/2007 after 24 hr; type: functional, organism-based
[49] = test system: Enterococcus faecalis; assay: Effect on gelatinase production in Enterococcus faecalis 13773 after 24 hr by gelatin hydrolysis test; type: functional, organism-based
[50] = test system: Bacillus subtilis; assay: Effect on gelatinase production in Bacillus subtilis 10.10.2006 after 24 hr by gelatin hydrolysis test; type: functional, organism-based
[51] = test system: Escherichia coli; assay: Effect on lipase production in Escherichia coli 637/2007 after 7 days; type: functional, organism-based
[52] = test system: Enterococcus faecalis; assay: Effect on DNase production in Enterococcus faecalis 13773 after 24 hr; type: functional, organism-based
[53] = test system: Klebsiella pneumoniae; assay: Effect on gelatinase production in Klebsiella pneumoniae 126/2007 after 24 hr by gelatin hydrolysis test; type: functional, organism-based
[54] = test system: Staphylococcus aureus; assay: Effect on DNase production in Staphylococcus aureus after 24 hr; type: functional, organism-based
[55] = test system: Staphylococcus aureus; assay: Effect on amylase production in Staphylococcus aureus after 24 hr by starch hydrolysis assay; type: functional, organism-based
[56] = test system: Staphylococcus aureus; assay: Effect on esculethol production in Staphylococcus aureus after 24 hr by esculin hydrolysis test; type: functional, organism-based

MIC [1]: 1000 µg/mL (≈ 3.16 mM)
MIC [2]: > 1000 µg/mL
MIC [3]: > 1000 µg/mL
MIC [4]: > 1000 µg/mL
MIC [5]: > 1000 µg/mL
MIC [6]: > 1000 µg/mL
MIC [7]: > 1000 µg/mL
SMILES: Cn1cc(C(=O)NC(=S)Nc2ccccc2C(C)(C)C)cn1

Activity [8]: inactive
Activity [9]: inactive
inhibition [11]: inactive
MIC [1]: 250 µg/mL (≈ 0.827 mM)
Activity [13]: inactive
Activity [14]: inactive
Activity [15]: inactive
inhibition [17]: inactive
Activity [18]: inactive
inhibition [20]: inactive
MIC [2]: 500 µg/mL (≈ 1.65 mM)
inhibition [21]: inactive
MIC [3]: 500 µg/mL (≈ 1.65 mM)
inhibition [22]: inactive
Activity [25]: inactive
Activity [26]: inactive
inhibition [27]: inactive
MIC [4]: 1000 µg/mL (≈ 3.31 mM)
Activity [30]: inactive
inhibition [31]: inactive
inhibition [32]: inactive
Activity [36]: inactive
Activity [37]: inactive
Activity [38]: inactive
inhibition [40]: inactive
MIC [5]: 500 µg/mL (≈ 1.65 mM)
Activity [43]: inactive
MIC [6]: 1000 µg/mL (≈ 3.31 mM)
Activity [44]: inactive
inhibition [45]: inactive
MIC [7]: 250 µg/mL (≈ 0.827 mM)
Activity [46]: inactive
Activity [47]: inactive
Activity [49]: inactive
Activity [50]: inactive
Activity [52]: inactive
Activity [53]: inactive
SMILES: CCCc1ccccc1NC(=S)NC(=O)c1cnn(C)c1
Activity [10]: inactive
Activity [12]: inactive
Activity [16]: inactive
Activity [19]: inactive
Activity [23]: inactive
Activity [24]: inactive
Activity [28]: inactive
inhibition [29]: inactive
inhibition [33]: inactive
inhibition [34]: Active
Activity [35]: inactive
inhibition [39]: inactive
Activity [41]: inactive
Activity [42]: inactive
Activity [48]: inactive
Activity [51]: inactive
Activity [54]: inactive
Activity [55]: inactive
Activity [56]: inactive

MIC [1]: > 1000 µg/mL
MIC [2]: > 1000 µg/mL
MIC [3]: > 1000 µg/mL
MIC [4]: > 1000 µg/mL
MIC [5]: > 1000 µg/mL
MIC [6]: > 1000 µg/mL
MIC [7]: > 1000 µg/mL
SMILES: Cc1ccccc1NC(=S)NC(=O)c1cnn(C)c1

MIC [1]: > 1000 µg/mL
MIC [2]: 1000 µg/mL (≈ 3.31 mM)
MIC [3]: > 1000 µg/mL
MIC [4]: > 1000 µg/mL
MIC [5]: > 1000 µg/mL
MIC [6]: > 1000 µg/mL
MIC [7]: > 1000 µg/mL
SMILES: CC(C)c1ccccc1NC(=S)NC(=O)c1cnn(C)c1

MIC [1]: > 1000 µg/mL
MIC [2]: 1000 µg/mL (≈ 3.64 mM)
MIC [3]: 1000 µg/mL (≈ 3.64 mM)
MIC [4]: > 1000 µg/mL
MIC [5]: > 1000 µg/mL
MIC [6]: > 1000 µg/mL
MIC [7]: > 1000 µg/mL
SMILES: Cc1cccc(NC(=S)NC(=O)c2cnn(C)c2)c1

MIC [1]: > 1000 µg/mL
MIC [2]: > 1000 µg/mL
MIC [3]: > 1000 µg/mL
MIC [4]: > 1000 µg/mL
MIC [5]: > 1000 µg/mL
MIC [6]: > 1000 µg/mL
MIC [7]: > 1000 µg/mL
SMILES: CCC(C)c1ccccc1NC(=S)NC(=O)c1cnn(C)c1 (stereo not drawn)

MIC [1]: > 1000 µg/mL
MIC [2]: > 1000 µg/mL
MIC [3]: > 1000 µg/mL
MIC [4]: > 1000 µg/mL
MIC [5]: > 1000 µg/mL
MIC [6]: > 1000 µg/mL
MIC [7]: > 1000 µg/mL
SMILES: Cn1cc(C(=O)NC(=S)Nc2ccc(C(C)(C)C)cc2)cn1
